The numbers were not newly measured in publication PMC7318425 (Bioorganic & medicinal chemistry letters, 2019), which cites them from elsewhere.

The test system of the data set is off-target kinases. The settings on record: KinomeScan, compared with ibrutinib.

With `Nc1ncnc2c1c(-c1ccc(Oc3ccccc3)cc1)nn2C1CCN(CCOCCOCC(=O)Nc2ccc3c(c2)C(=O)N(C2CCC(=O)NC2=O)C3=O)CC1` (stereo not shown) [MT802], the off-target kinase binding result is on record as “binds fewer off-target kinases than ibrutinib”.
